# Molecular target: T1, Cyclin-A2 (CCNA2) (Homo sapiens, UniProt P20248)
# T1 construct: recombinant human CCNA2 (rCCNA2), GST-tagged expression in BL21 (DE3), tag cleaved
# Experiment: ITC with purified CCNA2; supported by CETSA in MG-63 lysate and co-IP (blocks CCNA2-CDK2)
# Assay type: binding
# T1 sequence (P20248 whole entry): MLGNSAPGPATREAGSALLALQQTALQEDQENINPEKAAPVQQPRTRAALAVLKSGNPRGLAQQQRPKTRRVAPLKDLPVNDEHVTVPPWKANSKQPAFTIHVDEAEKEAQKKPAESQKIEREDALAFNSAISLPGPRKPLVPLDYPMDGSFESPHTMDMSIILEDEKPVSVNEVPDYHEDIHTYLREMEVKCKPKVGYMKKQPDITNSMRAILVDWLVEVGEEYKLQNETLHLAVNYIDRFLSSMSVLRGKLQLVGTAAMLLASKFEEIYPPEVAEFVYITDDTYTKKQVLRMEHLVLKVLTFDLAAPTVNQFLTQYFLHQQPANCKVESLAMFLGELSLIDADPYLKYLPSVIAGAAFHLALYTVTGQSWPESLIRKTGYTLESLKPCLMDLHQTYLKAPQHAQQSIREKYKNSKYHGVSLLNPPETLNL
smiles,measurement,value
Cc1ccccc1Cn1c2ccccc2c2cc(C(=O)OCCCCCOC(=O)c3cc4c5ccccc5n(Cc5ccccc5C)c4cn3)ncc21 [Comp1],Kd,2.9 mM
